Four molecules from publication PMC8241846, “Structure and lipid dynamics in the maintenance of lipid asymmetry inner membrane complex of A. baumannii” (Communications Biology, 2021) can be followed below.

Test [1] addresses T1, MlaBDEFab (Acinetobacter baumannii, UniProt A0A4P2WWN2+V5V921+V5V9F4).
T1 construct: gene ttg2A; full mla operon expressed in E. coli BL21(DE3), Ni-NTA purified (tag not described), in DDM; C2 complex MlaF2-MlaE2-MlaD6-MlaB2 (about half of particles with one MlaB)
The experiment in a line: cryo-EM structure, […] A. Format: binding. Conditions: Mg2+ seen in site; protein mixed 1:1 with 20 mM nucleotide, pH 8.0, 0.025% DDM; nucleotide site at MlaF/MlaE/MlaD interface (MlaF Lys55, Ser51, His211, Arg26); non-hydrolysable ATP analogue.

For test [2], the target named is T1, MlaBDEFab. The experiment in a line: cryo-EM map, […] A (no model deposited). Conditions: protein mixed 1:1 with 20 mM nucleotide, pH 8.0, 0.025% DDM; same nucleotide site; EMD-11084 in Table 1. It is filed as binding.
For test [3], the target named is MlaD of the A. baumannii MlaBDEF complex (MlaBDEFab) (Acinetobacter baumannii) (UniProt V5V921). The experiment in a line: cryo-EM structure; single-particle cryo-EM of the purified MlaBDEFab complex in DDM; 20 mM Hepes (pH 7.0), 150 mM NaCl, 0.025% (w/v) DDM; with AppNHp (3.9 Å, atomic model), also apo (~4.2 Å) and with ADP (~4.4 Å).
Test [4] addresses MlaF of the A. baumannii MlaBDEF complex (MlaBDEFab) (Acinetobacter baumannii). Described as above.

For the molecule `Nc1ncnc2c1ncn2[C@@H]1O[C@H](COP(=O)(O)OP(=O)(O)NP(=O)(O)O)[C@@H](O)[C@H]1O` [AppNHp], at MlaBDEFab [1], the “cryo-EM structure, 3.92 A” value was “we observed clear density of the nucleotide and magnesium, within the MlaF binding pocket”. For the molecule `Nc1ncnc2c1ncn2[C@@H]1O[C@H](COP(=O)(O)OP(=O)(O)O)[C@@H](O)[C@H]1O` [ADP], at MlaBDEFab [2], the “cryo-EM map, 4.43 A (no model deposited)” value was “confirms the presence of nucleotide in the AppNHp and ADP maps”. Molecule “MlaD of the A. baumannii MlaBDEF complex (MlaBDEFab) (from UniProt V5V921 1-226) (natural protein)” registered a stoichiometry N in test [3] of 6.

B1: MlaB of the A. baumannii MlaBDEF complex (MlaBDEFab) (natural protein)
chain: MVQYLNQELVVSGKIDFENAEQQYQAGLAIIKKQTSFPLIVDLKQLEHGNTLALAVLVQWLRQTPQKSGLHFKNVPEKMLKIIQACHLQEDLHLV
On to B1, for which, in test [4], the percent of particles with MlaB bound to both MlaF worked out at 50%.
